The structures appear in SMILES notation.

This note sets out measurements from ChEMBL document CHEMBL5465560, “Selectivity Literature for EUbOPEN Chemogenomic Library” (2024).

In assay [1] the target is Serine/threonine-protein kinase PLK3 (Homo sapiens, UniProt Q9H4B4). The note with it: at 10 µM.
The target in assay [2] is T1, Ephrin type-B receptor 1 (Homo sapiens) (UniProt P54762).
T1 sequence (whole entry): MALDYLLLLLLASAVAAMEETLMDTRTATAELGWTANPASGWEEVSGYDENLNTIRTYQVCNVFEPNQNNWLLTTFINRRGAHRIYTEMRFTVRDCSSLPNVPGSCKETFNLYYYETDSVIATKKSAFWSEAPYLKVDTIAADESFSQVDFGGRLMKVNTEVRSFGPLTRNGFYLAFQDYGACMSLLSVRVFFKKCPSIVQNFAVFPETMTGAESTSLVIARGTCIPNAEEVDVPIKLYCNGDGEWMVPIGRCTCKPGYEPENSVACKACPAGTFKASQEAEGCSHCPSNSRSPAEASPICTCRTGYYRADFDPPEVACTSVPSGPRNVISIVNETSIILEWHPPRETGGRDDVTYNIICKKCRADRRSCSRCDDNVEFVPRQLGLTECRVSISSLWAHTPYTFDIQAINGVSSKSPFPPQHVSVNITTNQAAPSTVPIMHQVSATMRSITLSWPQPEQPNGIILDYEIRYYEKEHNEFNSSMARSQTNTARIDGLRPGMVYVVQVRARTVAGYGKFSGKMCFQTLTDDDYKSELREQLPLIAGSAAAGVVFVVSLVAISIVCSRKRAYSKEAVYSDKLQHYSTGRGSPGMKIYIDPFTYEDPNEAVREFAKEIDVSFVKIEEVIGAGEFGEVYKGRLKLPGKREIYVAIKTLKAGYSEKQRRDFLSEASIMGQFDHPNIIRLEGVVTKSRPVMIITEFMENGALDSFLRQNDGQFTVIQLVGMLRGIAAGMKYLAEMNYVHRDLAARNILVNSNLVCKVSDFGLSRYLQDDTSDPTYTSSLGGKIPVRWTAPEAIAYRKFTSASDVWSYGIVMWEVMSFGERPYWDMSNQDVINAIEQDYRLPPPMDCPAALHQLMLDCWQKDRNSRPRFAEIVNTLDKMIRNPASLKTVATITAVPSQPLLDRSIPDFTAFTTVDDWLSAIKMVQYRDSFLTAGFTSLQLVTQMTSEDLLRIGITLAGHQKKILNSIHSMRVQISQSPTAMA
Kind of assay: Selectivity interaction (KinomeScan (DiscoverX)) EUB0000229b EPHB1. As to conditions: at 10 µM.

Assay [3] deals with T2, NUAK family SNF1-like kinase 2 (Homo sapiens) (UniProt Q9H093).
T2 sequence (whole entry): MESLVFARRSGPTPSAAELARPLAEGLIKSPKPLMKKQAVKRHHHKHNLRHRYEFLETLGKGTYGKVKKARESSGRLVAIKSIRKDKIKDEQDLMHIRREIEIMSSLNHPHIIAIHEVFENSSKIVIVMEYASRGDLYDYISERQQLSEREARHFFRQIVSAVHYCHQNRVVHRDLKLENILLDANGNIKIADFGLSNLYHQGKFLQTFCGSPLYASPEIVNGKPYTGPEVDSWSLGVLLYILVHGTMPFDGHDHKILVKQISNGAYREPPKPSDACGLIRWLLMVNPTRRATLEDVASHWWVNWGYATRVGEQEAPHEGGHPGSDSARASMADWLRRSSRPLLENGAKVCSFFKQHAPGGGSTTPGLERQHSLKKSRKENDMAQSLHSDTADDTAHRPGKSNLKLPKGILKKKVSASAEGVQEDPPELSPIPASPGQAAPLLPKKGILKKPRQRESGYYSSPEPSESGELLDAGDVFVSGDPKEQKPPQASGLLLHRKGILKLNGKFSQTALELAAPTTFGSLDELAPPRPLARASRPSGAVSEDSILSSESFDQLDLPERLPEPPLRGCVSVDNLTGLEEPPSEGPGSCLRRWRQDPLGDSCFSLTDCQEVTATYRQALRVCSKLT
Kind of assay: Selectivity interaction (KinomeScan (DiscoverX)) EUB0001079a NUAK2. The note with it: at 1 µM.

Assay [4] has as its target Mitogen-activated protein kinase kinase kinase 10 (Homo sapiens) (UniProt Q02779). Kind of assay: Selectivity interaction (ProQinase) EUB0000171b MAP3K10.
In assay [5] the target is T3, Serine/threonine-protein kinase TNNI3K (Homo sapiens) (UniProt Q59H18).
T3 sequence (whole entry): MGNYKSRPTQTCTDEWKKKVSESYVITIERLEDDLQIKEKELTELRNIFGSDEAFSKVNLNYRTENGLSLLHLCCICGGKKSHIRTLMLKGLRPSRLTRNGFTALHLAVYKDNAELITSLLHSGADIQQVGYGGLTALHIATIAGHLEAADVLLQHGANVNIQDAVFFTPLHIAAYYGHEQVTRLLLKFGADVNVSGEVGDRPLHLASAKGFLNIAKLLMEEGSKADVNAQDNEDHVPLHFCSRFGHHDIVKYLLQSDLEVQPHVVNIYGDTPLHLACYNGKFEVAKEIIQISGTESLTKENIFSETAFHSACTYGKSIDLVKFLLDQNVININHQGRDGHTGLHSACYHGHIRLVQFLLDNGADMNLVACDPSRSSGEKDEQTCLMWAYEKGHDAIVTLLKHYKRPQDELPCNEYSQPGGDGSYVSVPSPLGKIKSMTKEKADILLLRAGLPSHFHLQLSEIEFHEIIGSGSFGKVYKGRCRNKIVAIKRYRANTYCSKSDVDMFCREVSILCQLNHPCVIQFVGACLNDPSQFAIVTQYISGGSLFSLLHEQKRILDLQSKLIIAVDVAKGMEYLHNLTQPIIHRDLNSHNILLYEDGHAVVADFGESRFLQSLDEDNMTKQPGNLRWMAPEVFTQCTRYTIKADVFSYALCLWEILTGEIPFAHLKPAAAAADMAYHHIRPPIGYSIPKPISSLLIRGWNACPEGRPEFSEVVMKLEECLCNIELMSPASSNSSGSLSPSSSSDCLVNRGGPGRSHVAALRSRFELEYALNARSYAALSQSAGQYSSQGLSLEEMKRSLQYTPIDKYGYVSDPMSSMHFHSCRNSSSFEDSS
Kind of assay: Selectivity interaction (KinomeScan (DiscoverX)) EUB0000618a TNNI3K. As to conditions: at 10 µM.

Mitogen-activated protein kinase kinase kinase 10 (Homo sapiens), sequence (Q02779 whole entry, looked up): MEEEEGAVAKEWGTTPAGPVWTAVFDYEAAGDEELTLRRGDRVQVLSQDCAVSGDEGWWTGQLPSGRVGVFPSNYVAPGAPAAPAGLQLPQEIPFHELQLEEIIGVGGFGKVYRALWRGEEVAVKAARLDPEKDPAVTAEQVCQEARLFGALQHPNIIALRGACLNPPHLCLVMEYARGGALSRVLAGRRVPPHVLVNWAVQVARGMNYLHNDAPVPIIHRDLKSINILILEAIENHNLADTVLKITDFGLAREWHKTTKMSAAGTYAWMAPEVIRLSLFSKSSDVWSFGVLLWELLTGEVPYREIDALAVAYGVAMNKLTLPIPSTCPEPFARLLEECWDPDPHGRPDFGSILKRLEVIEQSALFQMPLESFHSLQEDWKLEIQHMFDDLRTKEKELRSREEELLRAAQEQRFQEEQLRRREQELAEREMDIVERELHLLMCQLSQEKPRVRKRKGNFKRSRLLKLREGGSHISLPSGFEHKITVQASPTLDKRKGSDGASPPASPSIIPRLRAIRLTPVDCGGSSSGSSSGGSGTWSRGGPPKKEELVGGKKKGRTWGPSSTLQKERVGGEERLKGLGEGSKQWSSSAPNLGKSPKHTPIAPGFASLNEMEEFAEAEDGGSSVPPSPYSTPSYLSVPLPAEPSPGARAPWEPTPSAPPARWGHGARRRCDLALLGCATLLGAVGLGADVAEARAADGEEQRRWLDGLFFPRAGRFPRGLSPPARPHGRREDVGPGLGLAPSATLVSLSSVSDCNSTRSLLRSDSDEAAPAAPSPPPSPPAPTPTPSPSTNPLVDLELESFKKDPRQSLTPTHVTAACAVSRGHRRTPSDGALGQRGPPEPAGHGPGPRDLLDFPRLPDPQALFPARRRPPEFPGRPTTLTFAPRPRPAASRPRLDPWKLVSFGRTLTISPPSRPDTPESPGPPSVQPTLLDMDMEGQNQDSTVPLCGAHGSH
Serine/threonine-protein kinase PLK3, sequence (Q9H4B4 whole entry, looked up): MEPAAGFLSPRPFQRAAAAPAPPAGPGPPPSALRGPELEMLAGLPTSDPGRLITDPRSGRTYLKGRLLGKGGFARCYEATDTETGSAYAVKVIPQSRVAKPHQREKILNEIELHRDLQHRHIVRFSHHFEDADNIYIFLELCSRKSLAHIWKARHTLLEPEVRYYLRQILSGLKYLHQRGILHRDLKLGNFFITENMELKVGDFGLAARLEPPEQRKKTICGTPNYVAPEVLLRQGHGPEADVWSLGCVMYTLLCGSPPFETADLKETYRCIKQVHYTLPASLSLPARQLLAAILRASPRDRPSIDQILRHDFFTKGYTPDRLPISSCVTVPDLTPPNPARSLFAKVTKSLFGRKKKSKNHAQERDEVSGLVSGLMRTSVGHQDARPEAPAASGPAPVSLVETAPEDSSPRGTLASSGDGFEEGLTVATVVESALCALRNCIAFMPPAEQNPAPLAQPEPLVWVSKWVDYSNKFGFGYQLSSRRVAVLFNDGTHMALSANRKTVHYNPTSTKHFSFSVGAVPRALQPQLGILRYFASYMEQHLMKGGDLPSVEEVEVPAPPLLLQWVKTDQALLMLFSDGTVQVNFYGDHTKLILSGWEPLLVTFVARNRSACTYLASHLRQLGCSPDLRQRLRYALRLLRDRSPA

Compound `Cc1cc([C@@H](C)Nc2ccccc2C(=O)O)c2nc(N3CCOCC3)cc(=O)n2c1` [AZD-6482] returned a % of control in assay [1] of 89%.

`COc1cc(N(C)c2ccnc3ccc(C(F)(F)F)cc23)cc(OC)c1OC`: the % binding in assay [2] stood at 97%.

In assay [3], `Nc1cnc(N2CCc3cc(S(=O)(=O)Nc4c(F)cc(Cl)cc4F)cc(N4CCCC4=O)c32)nc1` [TP-020n] displayed a % of control of 100%.

Regarding `C=CC(=O)Nc1cccc(C(=O)Nc2ccc(Nc3cc(-c4[nH]c(SC)nc4C)ccn3)cc2)c1`, the % of control worked out at 27% in assay [4] (at 1 µM) and 4% in assay [4] (at 5 µM).

Consider `O[C@H]1CC[C@H](Nc2ncc3nc(Nc4c(F)cc(F)cc4F)n([C@H]4CCOC4)c3n2)CC1`, for which the % of control in assay [5] was found to be 100%.
